Measurements published in the supplement of paper PMC10627819.

Columns and labels:
[1] = system: S. aureus Newman; test: fitness (endpoint OD595 vs no drug) (fraction); higher = more growth; settings: one replicate
In short: (§1)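 Fitness expresses the optical density reached at the stationary-phase transition as a fraction of the robust mean of no-drug control wells. It is capped at 1. Measurements were OD595 every 30 min for 14 h at 37 °C after inoculation of 384-well plates at OD595 0.01 (30 µl, or 55 µl for S. pneumoniae), minus the first reading.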

[2] = system: S. pneumoniae D39V; test: as above
In short: as §1

[3] = system: B. subtilis 168; test: Bliss interaction score (quartile over a dose matrix) (fitness difference); higher = more antagonism (negative = synergy)
In short: (§2)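 Growth was read as OD595 when cultures entered stationary phase, and each value was divided by the plate's robust no-drug mean and capped at 1. This normalised ratio is the fitness value, and fitness for each single drug came from the combination data. The Bliss score subtracts the expected fitness, taken as the product, from the observed fitness and is given as quartiles across technical, biological and donor/recipient replicates.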

[4] = system: S. aureus DSM 20231; test: as above
In short: as §2

[5] = system: S. aureus Newman; test: as above
In short: as §2

[6] = system: S. pneumoniae D39V; test: as above
In short: as §2
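Throughout, for Bliss interaction score (quartile over a dose matrix): first quartile when negative (synergy) and third quartile when positive (antagonism).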
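Throughout, for fitness (endpoint OD595 vs no drug): OD595 on entry to stationary phase over no-drug wells; at most 1.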

COc1cccc2c1C(=O)c1c(O)c3c(c(O)c1C2=O)C[C@@](O)(C(=O)CO)C[C@@H]3O[C@H]1C[C@H](N)[C@H](O)[C@H](C)O1 [Doxorubicin] + C/C(=C\C(=O)OCCCCCCCCC(=O)O)C[C@@H]1OC[C@H](C[C@@H]2O[C@H]2[C@@H](C)[C@H](C)O)[C@@H](O)[C@H]1O [Pseudomonic acid]
fitness
Settings	first compound 0.25 µg/mL	first compound 0.5 µg/mL	first compound 0.625 µg/mL	first compound 1 µg/mL	first compound 1.25 µg/mL	first compound 2.5 µg/mL
[1], partner 0.0313 µg/mL	–	–	0.0603	–	0.0435	0.0003
[1], partner 0.0625 µg/mL	–	–	0.0314	–	0.0203	0.0075
[1], partner 0.125 µg/mL	–	–	0.0395	–	0.0395	0.0206
[2], partner 0.03 µg/mL	0.916	0.893	–	0.887	–	–
[2], partner 0.06 µg/mL	0.73	0.756	–	0.681	–	–
[2], partner 0.12 µg/mL	0.484	0.435	–	0.381	–	–

Settings	Bliss interaction score
[3]	0.12
[4]	-0.0156
[5]	-0.0226
[6]	-0.079

O=C(O)c1cn(C2CC2)c2cc(N3CCNCC3)c(F)cc2c1=O [Ciprofloxacin] + C/C(=C\C(=O)OCCCCCCCCC(=O)O)C[C@@H]1OC[C@H](C[C@@H]2O[C@H]2[C@@H](C)[C@H](C)O)[C@@H](O)[C@H]1O [Pseudomonic acid]
Settings	fitness
[1], first compound 0.078 µg/mL, partner 0.0313 µg/mL	0.0919
[1], first compound 0.078 µg/mL, partner 0.0625 µg/mL	0.052
[1], first compound 0.078 µg/mL, partner 0.125 µg/mL	0.0642
[1], first compound 0.156 µg/mL, partner 0.0313 µg/mL	0.0675
[1], first compound 0.156 µg/mL, partner 0.0625 µg/mL	0.0404
[1], first compound 0.156 µg/mL, partner 0.125 µg/mL	0.0505
[1], first compound 0.312 µg/mL, partner 0.0313 µg/mL	0.0586
[1], first compound 0.312 µg/mL, partner 0.0625 µg/mL	0.0324
[1], first compound 0.312 µg/mL, partner 0.125 µg/mL	0.0607
[2], first compound 0.125 µg/mL, partner 0.03 µg/mL	0.92
[2], first compound 0.125 µg/mL, partner 0.06 µg/mL	0.828
[2], first compound 0.125 µg/mL, partner 0.12 µg/mL	0.444
[2], first compound 0.25 µg/mL, partner 0.03 µg/mL	0.877
[2], first compound 0.25 µg/mL, partner 0.06 µg/mL	0.742
[2], first compound 0.25 µg/mL, partner 0.12 µg/mL	0.551
[2], first compound 0.5 µg/mL, partner 0.12 µg/mL	0.393

Settings	Bliss interaction score
[3]	0.0413
[4]	0.0149
[5]	0.0616
[6]	0.0559

C[C@@H]1O[C@@H]1P(=O)(O)O [Fosfomycin] + C/C(=C\C(=O)OCCCCCCCCC(=O)O)C[C@@H]1OC[C@H](C[C@@H]2O[C@H]2[C@@H](C)[C@H](C)O)[C@@H](O)[C@H]1O [Pseudomonic acid]
Settings	fitness
[1], first compound 0.781 µg/mL, partner 0.0313 µg/mL	0.0359
[1], first compound 0.781 µg/mL, partner 0.0625 µg/mL	0.0247
[1], first compound 0.781 µg/mL, partner 0.125 µg/mL	0.0275
[1], first compound 1.562 µg/mL, partner 0.0313 µg/mL	0.0031
[1], first compound 1.562 µg/mL, partner 0.0625 µg/mL	0.0394
[1], first compound 1.562 µg/mL, partner 0.125 µg/mL	0.0351
[1], first compound 3.124 µg/mL, partner 0.0313 µg/mL	0.0112
[1], first compound 3.124 µg/mL, partner 0.0625 µg/mL	0.0147
[1], first compound 3.124 µg/mL, partner 0.125 µg/mL	0.0342
[2], first compound 1.25 µg/mL, partner 0.03 µg/mL	0.928
[2], first compound 1.25 µg/mL, partner 0.06 µg/mL	0.803
[2], first compound 1.25 µg/mL, partner 0.12 µg/mL	0.531
[2], first compound 2.5 µg/mL, partner 0.03 µg/mL	0.937
[2], first compound 2.5 µg/mL, partner 0.06 µg/mL	0.882
[2], first compound 2.5 µg/mL, partner 0.12 µg/mL	0.454
[2], first compound 5 µg/mL, partner 0.03 µg/mL	0.868
[2], first compound 5 µg/mL, partner 0.12 µg/mL	0.201

Settings	Bliss interaction score
[3]	0.0483
[4]	0.0164
[5]	-0.0091
[6]	-0.0714

CO/N=C(\C(=O)N[C@@H]1C(=O)N2C(C(=O)O)=C(COC(C)=O)CS[C@H]12)c1csc(N)n1 [Cefotaxime] + C/C(=C\C(=O)OCCCCCCCCC(=O)O)C[C@@H]1OC[C@H](C[C@@H]2O[C@H]2[C@@H](C)[C@H](C)O)[C@@H](O)[C@H]1O [Pseudomonic acid]
fitness
Settings	first compound 0.0018 µg/mL	first compound 0.0035 µg/mL	first compound 0.007 µg/mL	first compound 0.078 µg/mL	first compound 0.156 µg/mL	first compound 0.312 µg/mL
[1], partner 0.0313 µg/mL	–	–	–	0.054	0.0458	0.0509
[1], partner 0.0625 µg/mL	–	–	–	0.0409	0.0394	0.0414
[1], partner 0.125 µg/mL	–	–	–	0.0477	0.0707	0.0616
[2], partner 0.03 µg/mL	0.978	0.962	0.962	–	–	–
[2], partner 0.06 µg/mL	0.833	0.862	0.809	–	–	–
[2], partner 0.12 µg/mL	0.551	0.56	0.517	–	–	–

Settings	Bliss interaction score
[3]	0.0549
[4]	0.0223
[5]	0.022
[6]	0.0643

CO/N=C(\C(=O)N[C@@H]1C(=O)N2C(C(=O)O)=C(COC(N)=O)CS[C@H]12)c1ccco1 [Cefuroxime] + Cn1nnc(-c2ccc(-c3ccc(N4C[C@H](CO)OC4=O)cc3F)cn2)n1 [Tedizolid]
fitness, [1]
Settings	first compound 0.04875 µg/mL	first compound 0.0975 µg/mL	first compound 0.195 µg/mL
partner 0.0625 µg/mL	0.614	0.641	0.517
partner 0.125 µg/mL	0.0599	0.0707	0.0587
partner 0.25 µg/mL	0.496	0.513	0.425

Settings	Bliss interaction score
[3]	0.136
[4]	-0.223
[5]	0.259
[6]	0.026
